Literature values as cited in patent publication US20190209686A1, “PULSE PHOTODYNAMIC TREATMENT OF ACNE” (GALDERMA RESEARCH & DEVELOPMENT, priority 2013, published 2019).
Where two headings read alike, the source gives them in different places.

Tests used:
acne [1] = settings: 20%, 3 hours, 150 J/cm2 broad band light
acne [2] = settings: cream 16% wt., 3 hours, non-coherent red light

For `NCC(=O)CCC(=O)O` [ALA acid, 5-amino-4-oxo-pentanoic acid], the “efficacy of PDT in acne” value (acne [1]) is given as “effective for the treatment of acne” and the “side effects after PDT” value (acne [1]) is given as “erythema, hyperpigmentation and exfoliation were often seen after PDT treatment”.
For `COC(=O)CCC(=O)CN` [methyl ALA ester, 5-ALA methyl ester], the “side effects of PDT reported by subjects” value (acne [2]) is listed as “caused pain and induced severe inflammation” and the “efficacy of PDT in acne” value (acne [2]; repeated 2 weeks later) is listed as “effective in the treatment of acne”.
